Source: US20240285580A1, “COMPOSITIONS AND METHODS FOR EXTENDED RELEASE CROMAKALIM THERAPY” (Qlaris Bio, Inc., priority 2021, published 2024)
Structures can show the parent of a compound that is named as a salt.

Assays:
[1] = in vivo; cited from earlier work
[2] = cited from earlier work
[3] = trials terminated; most likely due to poor bioavailability; cited from earlier work
[4] = tested on: KATP channels; conditions: membrane patches from rabbit mesenteric arterial smooth muscle cells, in the presence of ATP; cited from earlier work
[5] = tested on: isolated rat mesenteric lymph vessels; conditions: cited from earlier work; for rhythmic contractions of isolated rat mesenteric lymph vessels: exposure to KATP channel openers
[6] = tested on: CD31 and VE-Cadherin; assay: Expression of biomarker proteins for hyperemia and vessel integrity; conditions: compared to Y-27632, a Rho kinase inhibitor
Text: Furthermore, the effect of levcromakalim on selected biomarkers for hyperemia and perturbations to vessel integrity has been established.

SMILES	effect on blood pressure [1]	solubility in water [2]	outcome of human clinical trials [3]	increase of open-state probability (Popen) of single KATP channels [4]	rhythmic contractions of isolated rat mesenteric lymph vessels [5]	contractions of the vessels at increasing concentrations ([5]; increasing concentrations, flow impaired by attenuating frequency and amplitude)	impact on expression of measured proteins indicative of tissue and vessel integrity [6]
CC1(C)Oc2ccc(C#N)cc2C(N2CCCC2=O)C1O (stereo not shown) [Cromakalim, cromakalim]	lower blood pressure	substantially insoluble in water	lack of activity	more than 9 fold	progressively impaired	ultimately abolished the contractions	
CC1(C)Oc2ccc(C#N)cc2[C@@H](N2CCCC2=O)[C@@H]1O [Levcromakalim, levcromakalim]							no significant impact
CC1=NS(=O)(=O)c2cc(Cl)ccc2N1 [diazoxide]	lower blood pressure				progressively impaired		
Nc1cc(N2CCCCC2)nc(N)[n+]1OS(=O)(=O)[O-] [minoxidil sulfate]					progressively impaired		
